In the kinase profiling compilation of Christmann-Franck et al. (2016):

How the values were obtained:
Assay in all cases: radiometric filter-binding kinase assay, Kinase HotSpot
Conditions in all cases: compound 0.5 µM; ATP 10 µM
CAMKK1 (human) = CAMKK1 (human) (UniProt Q8N5S9)
PDGFRB (human) = PDGFRB (human) (UniProt P09619)
CSNK1D (human) = CSNK1D (human) (UniProt P48730)
PIM2 (human) = PIM2 (human) (UniProt Q9P1W9)
AURKA (human) = AURKA (human) (UniProt O14965)
CSNK1A1 (human) = CSNK1A1 (human) (UniProt P48729)
MAP2K2 (human) = MAP2K2 (human) (UniProt P36507)
FGR (human) = FGR (human) (UniProt P09769)
JAK2 JH1 JH2 (human) = JAK2 JH1 JH2 (human) (UniProt O60674)
INSRR (human) = INSRR (human) (UniProt P14616)
TGFBR1 (human) = TGFBR1 (human) (UniProt P36897)
PRKCD (human) = PRKCD (human) (UniProt Q05655)
SGK3 (human) = SGK3 (human) (UniProt Q96BR1)
[1] = molecular target: JAK1 JH1 catalytic (human) (UniProt P23458)
DMPK (human) = DMPK (human) (UniProt Q09013)
AKT3 (human) = AKT3 (human) (UniProt Q9Y243)
GSK3A (human) = GSK3A (human) (UniProt P49840)
MLTK (human) = MLTK (human) (UniProt Q9NYL2)
PRKG2 (human) = PRKG2 (human) (UniProt Q13237)
MAP3K11 (human) = MAP3K11 (human) (UniProt Q16584)
AURKB (human) = AURKB (human) (UniProt Q96GD4)
STK4 (human) = STK4 (human) (UniProt Q13043)
FES (human) = FES (human) (UniProt P07332)
OXSR1 (human) = OXSR1 (human) (UniProt O95747)
MYLK2 (human) = MYLK2 (human) (UniProt Q9H1R3)
MAPK11 (human) = MAPK11 (human) (UniProt Q15759)
FLT1 (human) = FLT1 (human) (UniProt P17948)
DAPK1 (human) = DAPK1 (human) (UniProt P53355)
RPS6KA2 KD1 KD2 (human) = RPS6KA2 KD1 KD2 (human) (UniProt Q15349)
CDK5 CDK5R1 p25 (human) = CDK5 CDK5R1 p25 (human) (UniProt Q00535+Q15078)
CDC42BPB (human) = CDC42BPB (human) (UniProt Q9Y5S2)
DYRK1A (human) = DYRK1A (human) (UniProt Q13627)
SRC (human) = SRC (human) (UniProt P12931)
CSNK1E (human) = CSNK1E (human) (UniProt P49674)
RAF1 (human) = RAF1 (human) (UniProt P04049)
EPHB2 (human) = EPHB2 (human) (UniProt P29323)
MAP3K2 (human) = MAP3K2 (human) (UniProt Q9Y2U5)
MET (human) = MET (human) (UniProt P08581)
HIPK2 (human) = HIPK2 (human) (UniProt Q9H2X6)
YES1 (human) = YES1 (human) (UniProt P07947)
BLK (human) = BLK (human) (UniProt P51451)
PTK2 (human) = PTK2 (human) (UniProt Q05397)

YES1 (human), sequence (P07947 whole entry, looked up): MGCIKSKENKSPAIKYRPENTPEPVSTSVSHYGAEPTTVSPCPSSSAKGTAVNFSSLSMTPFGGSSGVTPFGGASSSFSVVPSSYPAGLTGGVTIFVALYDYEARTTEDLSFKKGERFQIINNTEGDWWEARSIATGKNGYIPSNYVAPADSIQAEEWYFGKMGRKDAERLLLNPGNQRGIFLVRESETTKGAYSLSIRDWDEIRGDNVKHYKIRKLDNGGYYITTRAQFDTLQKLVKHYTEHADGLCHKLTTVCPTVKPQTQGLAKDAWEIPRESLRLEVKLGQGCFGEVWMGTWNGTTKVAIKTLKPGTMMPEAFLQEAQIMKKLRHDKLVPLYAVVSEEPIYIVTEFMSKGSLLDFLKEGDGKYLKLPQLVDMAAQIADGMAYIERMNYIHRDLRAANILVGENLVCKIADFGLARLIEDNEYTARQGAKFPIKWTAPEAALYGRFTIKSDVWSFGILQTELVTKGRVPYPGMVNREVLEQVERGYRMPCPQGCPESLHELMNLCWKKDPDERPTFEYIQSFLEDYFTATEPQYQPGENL
MAP2K2 (human), sequence (P36507 whole entry, looked up): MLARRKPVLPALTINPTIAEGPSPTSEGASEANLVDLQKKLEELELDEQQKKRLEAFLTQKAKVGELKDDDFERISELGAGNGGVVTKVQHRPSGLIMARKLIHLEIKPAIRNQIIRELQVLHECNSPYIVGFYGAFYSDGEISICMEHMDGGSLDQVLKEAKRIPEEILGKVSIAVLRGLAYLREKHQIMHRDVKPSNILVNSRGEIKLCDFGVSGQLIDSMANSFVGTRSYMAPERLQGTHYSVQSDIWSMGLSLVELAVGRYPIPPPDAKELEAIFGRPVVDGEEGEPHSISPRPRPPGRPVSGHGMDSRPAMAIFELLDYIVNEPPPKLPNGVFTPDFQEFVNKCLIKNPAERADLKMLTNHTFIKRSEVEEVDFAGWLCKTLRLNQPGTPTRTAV
FES (human), sequence (P07332 whole entry, looked up): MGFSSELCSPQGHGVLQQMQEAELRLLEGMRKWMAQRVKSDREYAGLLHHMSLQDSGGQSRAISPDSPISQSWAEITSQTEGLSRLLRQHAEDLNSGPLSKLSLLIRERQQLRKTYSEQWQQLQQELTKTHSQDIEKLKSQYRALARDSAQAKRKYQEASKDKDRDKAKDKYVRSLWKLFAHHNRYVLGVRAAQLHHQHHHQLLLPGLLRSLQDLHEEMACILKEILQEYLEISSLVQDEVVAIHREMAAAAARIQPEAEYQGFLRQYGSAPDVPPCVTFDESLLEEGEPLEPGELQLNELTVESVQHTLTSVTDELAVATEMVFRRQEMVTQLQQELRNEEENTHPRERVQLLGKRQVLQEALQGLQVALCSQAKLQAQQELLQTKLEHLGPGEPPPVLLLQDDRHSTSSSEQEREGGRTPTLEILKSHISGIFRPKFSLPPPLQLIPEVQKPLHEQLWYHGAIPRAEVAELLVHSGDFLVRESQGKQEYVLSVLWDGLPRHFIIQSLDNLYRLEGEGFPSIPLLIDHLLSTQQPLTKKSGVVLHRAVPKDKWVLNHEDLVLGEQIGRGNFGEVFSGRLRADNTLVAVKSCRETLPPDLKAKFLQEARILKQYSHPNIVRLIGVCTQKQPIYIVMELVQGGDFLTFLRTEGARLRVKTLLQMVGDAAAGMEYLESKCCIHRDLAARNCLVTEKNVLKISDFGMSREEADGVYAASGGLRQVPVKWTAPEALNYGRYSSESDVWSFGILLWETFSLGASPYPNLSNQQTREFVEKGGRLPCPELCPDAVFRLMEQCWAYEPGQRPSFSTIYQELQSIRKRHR
INSRR (human), sequence (P14616 whole entry, looked up): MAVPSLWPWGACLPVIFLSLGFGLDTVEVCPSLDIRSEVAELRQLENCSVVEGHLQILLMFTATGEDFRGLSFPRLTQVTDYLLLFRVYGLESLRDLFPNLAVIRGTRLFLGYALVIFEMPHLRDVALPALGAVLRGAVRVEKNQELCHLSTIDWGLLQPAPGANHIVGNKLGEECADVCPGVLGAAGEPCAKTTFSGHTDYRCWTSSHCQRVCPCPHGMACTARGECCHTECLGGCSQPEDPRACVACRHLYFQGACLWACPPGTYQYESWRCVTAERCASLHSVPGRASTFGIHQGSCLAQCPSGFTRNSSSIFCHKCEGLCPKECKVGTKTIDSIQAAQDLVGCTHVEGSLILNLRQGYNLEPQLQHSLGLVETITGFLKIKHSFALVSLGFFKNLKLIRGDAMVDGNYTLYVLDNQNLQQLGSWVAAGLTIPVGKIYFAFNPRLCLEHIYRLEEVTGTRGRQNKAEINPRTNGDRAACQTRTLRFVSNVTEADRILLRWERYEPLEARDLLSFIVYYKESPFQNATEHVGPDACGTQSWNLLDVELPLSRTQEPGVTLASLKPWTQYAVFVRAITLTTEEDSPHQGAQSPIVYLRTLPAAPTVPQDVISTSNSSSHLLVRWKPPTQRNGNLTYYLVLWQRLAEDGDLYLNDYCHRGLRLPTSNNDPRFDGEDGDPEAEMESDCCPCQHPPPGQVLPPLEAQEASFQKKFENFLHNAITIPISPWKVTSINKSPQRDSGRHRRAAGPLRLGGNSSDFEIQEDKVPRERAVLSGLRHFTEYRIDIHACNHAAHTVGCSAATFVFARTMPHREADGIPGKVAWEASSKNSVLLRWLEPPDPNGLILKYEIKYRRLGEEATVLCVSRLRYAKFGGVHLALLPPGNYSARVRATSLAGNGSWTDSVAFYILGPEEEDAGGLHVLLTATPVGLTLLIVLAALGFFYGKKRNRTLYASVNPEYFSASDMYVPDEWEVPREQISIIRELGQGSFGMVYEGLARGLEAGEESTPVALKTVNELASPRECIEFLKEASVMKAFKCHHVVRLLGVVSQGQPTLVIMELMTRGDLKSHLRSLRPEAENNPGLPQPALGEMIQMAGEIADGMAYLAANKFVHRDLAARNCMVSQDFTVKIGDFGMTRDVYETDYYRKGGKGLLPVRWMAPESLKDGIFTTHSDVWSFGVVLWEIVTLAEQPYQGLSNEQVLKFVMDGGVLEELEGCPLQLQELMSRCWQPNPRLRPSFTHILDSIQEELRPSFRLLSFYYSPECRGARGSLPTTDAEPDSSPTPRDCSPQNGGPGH
BLK (human), sequence (P51451 whole entry, looked up): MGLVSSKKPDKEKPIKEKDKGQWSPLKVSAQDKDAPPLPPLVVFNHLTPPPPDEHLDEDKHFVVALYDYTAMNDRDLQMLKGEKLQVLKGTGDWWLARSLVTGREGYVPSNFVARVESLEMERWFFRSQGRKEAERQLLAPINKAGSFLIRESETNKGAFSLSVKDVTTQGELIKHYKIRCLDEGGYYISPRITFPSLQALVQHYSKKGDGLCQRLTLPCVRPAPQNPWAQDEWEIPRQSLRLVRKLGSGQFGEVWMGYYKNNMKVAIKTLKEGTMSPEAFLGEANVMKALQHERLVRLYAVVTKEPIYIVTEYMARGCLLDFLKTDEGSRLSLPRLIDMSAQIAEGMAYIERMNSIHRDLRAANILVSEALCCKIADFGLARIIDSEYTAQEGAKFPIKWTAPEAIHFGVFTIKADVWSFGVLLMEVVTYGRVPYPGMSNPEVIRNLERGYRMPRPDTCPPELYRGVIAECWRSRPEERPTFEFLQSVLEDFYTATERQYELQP
PRKG2 (human), sequence (Q13237 whole entry, looked up): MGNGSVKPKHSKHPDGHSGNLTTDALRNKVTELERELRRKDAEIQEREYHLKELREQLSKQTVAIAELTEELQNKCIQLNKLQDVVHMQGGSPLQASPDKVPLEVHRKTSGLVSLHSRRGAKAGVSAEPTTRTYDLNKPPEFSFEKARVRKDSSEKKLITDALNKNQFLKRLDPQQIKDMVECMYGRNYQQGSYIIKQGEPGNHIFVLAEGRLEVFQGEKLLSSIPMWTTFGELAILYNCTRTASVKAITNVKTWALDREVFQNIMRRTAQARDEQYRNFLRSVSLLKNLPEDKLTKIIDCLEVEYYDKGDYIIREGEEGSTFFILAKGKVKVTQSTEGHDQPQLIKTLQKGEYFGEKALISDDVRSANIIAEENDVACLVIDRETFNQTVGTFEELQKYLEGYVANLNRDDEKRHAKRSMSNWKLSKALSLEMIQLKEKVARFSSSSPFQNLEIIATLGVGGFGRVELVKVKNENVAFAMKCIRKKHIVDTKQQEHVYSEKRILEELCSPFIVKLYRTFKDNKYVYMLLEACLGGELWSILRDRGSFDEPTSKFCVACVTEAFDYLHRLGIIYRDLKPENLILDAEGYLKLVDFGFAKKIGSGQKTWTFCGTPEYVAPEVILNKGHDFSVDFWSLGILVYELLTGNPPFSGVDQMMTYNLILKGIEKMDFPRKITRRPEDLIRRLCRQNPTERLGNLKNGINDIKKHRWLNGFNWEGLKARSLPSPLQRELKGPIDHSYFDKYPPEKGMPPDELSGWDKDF
MAPK11 (human), sequence (Q15759 whole entry, looked up): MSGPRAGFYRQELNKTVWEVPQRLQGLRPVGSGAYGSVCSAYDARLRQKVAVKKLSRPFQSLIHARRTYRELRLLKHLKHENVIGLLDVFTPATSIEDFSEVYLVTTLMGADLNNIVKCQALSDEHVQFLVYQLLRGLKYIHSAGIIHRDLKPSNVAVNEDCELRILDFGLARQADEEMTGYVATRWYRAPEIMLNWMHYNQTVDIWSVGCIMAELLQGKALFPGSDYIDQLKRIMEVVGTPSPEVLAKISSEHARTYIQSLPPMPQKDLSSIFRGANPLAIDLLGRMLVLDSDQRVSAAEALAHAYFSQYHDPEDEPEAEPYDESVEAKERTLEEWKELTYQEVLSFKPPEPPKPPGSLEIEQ
PIM2 (human), sequence (Q9P1W9 whole entry, looked up): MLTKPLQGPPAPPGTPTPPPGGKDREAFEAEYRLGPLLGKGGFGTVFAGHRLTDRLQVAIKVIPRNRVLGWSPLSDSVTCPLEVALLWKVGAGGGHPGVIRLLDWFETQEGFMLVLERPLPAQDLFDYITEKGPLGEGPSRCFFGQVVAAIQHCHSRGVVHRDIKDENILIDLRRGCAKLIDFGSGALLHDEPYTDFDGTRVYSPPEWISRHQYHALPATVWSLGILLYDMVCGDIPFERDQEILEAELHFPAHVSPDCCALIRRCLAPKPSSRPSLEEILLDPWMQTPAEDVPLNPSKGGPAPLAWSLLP

COc1ccc(Cl)cc1NC(=O)Nc1cc(C)nc2ccccc12
residual activity (CAMKK1 (human)): 113% | residual activity (PDGFRB (human)): 105% | residual activity (CSNK1D (human)): 98.7% | residual activity (PIM2 (human)): 99.8% | residual activity (AURKA (human)): 93.4% | residual activity (CSNK1A1 (human)): 101% | residual activity (MAP2K2 (human)): 94.1% | residual activity (FGR (human)): 92% | residual activity (JAK2 JH1 JH2 (human)): 99.6% | residual activity (INSRR (human)): 100% | residual activity (TGFBR1 (human)): 99.1% | residual activity (PRKCD (human)): 96.3% | residual activity (SGK3 (human)): 108% | residual activity [1]: 99.3% | residual activity (DMPK (human)): 103% | residual activity (AKT3 (human)): 103% | residual activity (GSK3A (human)): 124% | residual activity (MLTK (human)): 99.7% | residual activity (PRKG2 (human)): 105% | residual activity (MAP3K11 (human)): 89% | residual activity (AURKB (human)): 95.9% | residual activity (STK4 (human)): 98.7% | residual activity (FES (human)): 101% | residual activity (OXSR1 (human)): 101% | residual activity (MYLK2 (human)): 99.3% | residual activity (MAPK11 (human)): 92% | residual activity (FLT1 (human)): 86.2% | residual activity (DAPK1 (human)): 93.3% | residual activity (RPS6KA2 KD1 KD2 (human)): 99.8% | residual activity (CDK5 CDK5R1 p25 (human)): 105% | residual activity (CDC42BPB (human)): 94.4% | residual activity (DYRK1A (human)): 103% | residual activity (SRC (human)): 99% | residual activity (CSNK1E (human)): 86.4% | residual activity (RAF1 (human)): 94.8% | residual activity (EPHB2 (human)): 93.2% | residual activity (MAP3K2 (human)): 98% | residual activity (MET (human)): 96.6% | residual activity (HIPK2 (human)): 101% | residual activity (YES1 (human)): 90.1% | residual activity (BLK (human)): 99.8% | residual activity (PTK2 (human)): 97.3%

CCCCc1c(-c2ccc(OC)cc2)[nH]c2nccnc12
residual activity (CAMKK1 (human)): 105% | residual activity (PDGFRB (human)): 95.9% | residual activity (CSNK1D (human)): 94.7% | residual activity (PIM2 (human)): 115% | residual activity (AURKA (human)): 25.5% | residual activity (CSNK1A1 (human)): 92.9% | residual activity (MAP2K2 (human)): 79.4% | residual activity (FGR (human)): 57.1% | residual activity (JAK2 JH1 JH2 (human)): 77.9% | residual activity (INSRR (human)): 83.2% | residual activity (TGFBR1 (human)): 95% | residual activity (PRKCD (human)): 92.8% | residual activity (SGK3 (human)): 98.6% | residual activity [1]: 67.1% | residual activity (DMPK (human)): 84.3% | residual activity (AKT3 (human)): 102% | residual activity (GSK3A (human)): 55.8% | residual activity (MLTK (human)): 83.6% | residual activity (PRKG2 (human)): 93.9% | residual activity (MAP3K11 (human)): 39.4% | residual activity (AURKB (human)): 64.5% | residual activity (STK4 (human)): 82.2% | residual activity (FES (human)): 66% | residual activity (OXSR1 (human)): 102% | residual activity (MYLK2 (human)): 102% | residual activity (MAPK11 (human)): 100% | residual activity (FLT1 (human)): 103% | residual activity (DAPK1 (human)): 90.6% | residual activity (RPS6KA2 KD1 KD2 (human)): 93% | residual activity (CDK5 CDK5R1 p25 (human)): 41.3% | residual activity (CDC42BPB (human)): 92.5% | residual activity (DYRK1A (human)): 102% | residual activity (SRC (human)): 58.8% | residual activity (CSNK1E (human)): 109% | residual activity (RAF1 (human)): 99.9% | residual activity (EPHB2 (human)): 88.8% | residual activity (MAP3K2 (human)): 90.9% | residual activity (MET (human)): 86.8% | residual activity (HIPK2 (human)): 109% | residual activity (YES1 (human)): 45.7% | residual activity (BLK (human)): 96.7% | residual activity (PTK2 (human)): 81.7%

N#Cc1c[nH]c2c[nH]/c(=N\Cc3cccnc3)cc2/c1=N\c1ccc(F)c(Cl)c1
residual activity (CAMKK1 (human)): 105% | residual activity (PDGFRB (human)): 101% | residual activity (CSNK1D (human)): 88.4% | residual activity (PIM2 (human)): 101% | residual activity (AURKA (human)): 98.1% | residual activity (CSNK1A1 (human)): 101% | residual activity (MAP2K2 (human)): 105% | residual activity (FGR (human)): 84.5% | residual activity (JAK2 JH1 JH2 (human)): 99% | residual activity (INSRR (human)): 97% | residual activity (TGFBR1 (human)): 99.6% | residual activity (PRKCD (human)): 95.2% | residual activity (SGK3 (human)): 91.5% | residual activity [1]: 93.6% | residual activity (DMPK (human)): 104% | residual activity (AKT3 (human)): 95.1% | residual activity (GSK3A (human)): 88.5% | residual activity (MLTK (human)): 106% | residual activity (PRKG2 (human)): 90.9% | residual activity (MAP3K11 (human)): 89% | residual activity (AURKB (human)): 90.1% | residual activity (STK4 (human)): 100% | residual activity (FES (human)): 108% | residual activity (OXSR1 (human)): 87.7% | residual activity (MYLK2 (human)): 96.2% | residual activity (MAPK11 (human)): 102% | residual activity (FLT1 (human)): 88% | residual activity (DAPK1 (human)): 102% | residual activity (RPS6KA2 KD1 KD2 (human)): 87.3% | residual activity (CDK5 CDK5R1 p25 (human)): 78.3% | residual activity (CDC42BPB (human)): 124% | residual activity (DYRK1A (human)): 52.7% | residual activity (SRC (human)): 92.6% | residual activity (CSNK1E (human)): 81.8% | residual activity (RAF1 (human)): 90.9% | residual activity (EPHB2 (human)): 97.4% | residual activity (MAP3K2 (human)): 81.2% | residual activity (MET (human)): 94.9% | residual activity (HIPK2 (human)): 93.2% | residual activity (YES1 (human)): 93.6% | residual activity (BLK (human)): 99.9% | residual activity (PTK2 (human)): 99.6%
